Experimental data reported in patent US20100278896A1, “SOLID COMPOSITIONS” (UCL BUSINESS PLC, priority 2007, published 2010).

Tests used:
[1] = Tablet release in flow rig, pH 7.6 aqueous solution, 37° C., flow rate 2 μl/min, HPLC; format: physicochemical
Method: To obtain some indication of release kinetics, flow rigs of 50-200 μl capacity were used to model the bleb. An Ilomastat tablet (one tablet per rig) was placed into the flow chamber. Two tubes are connected to each rig: one was connected to a peristaltic pump to introduce an aqueous solution and the other tube allowed the removal of the solution out of the rig. Flow rates were used to model the flow of the aqueous solution into and out from the subconjunctival space to the scleral veins.
A range of flow rates was used in the rig experiments; however, in most of the experiments a flow rate of 2 μl/min was used to simulate the aqueous flow rate in the bleb. To further simulate the actual conditions in the eye, the aqueous solution used was maintained at pH 7.4-7.6 (as this is the pH of normal human aqueous humor) and the temperature was maintained at 37° C. The aqueous solution that was prepared using Oxoid® Phosphate Buffered Saline Tablets (one tablet for every 100 ml of de-ionized water). The PBS tablets were dissolved in de-ionized water and the pH was adjusted to 7.6. The aqueous solution was kept at 37° C.
The mobile phase was prepared as follows. […] When the pH was adjusted, de-ionized water was added to make the buffer volume of 1000 ml. Aliquots of each sample (0.1 ml) were transferred to HPLC vials that were then placed in the HPLC auto-sampler. […] Three injections (10 μl each) for each time point were evaluated. A computer was connected with the UV detector and with the use of the programme Chrom+, the peak area was analyzed to determine the amount of Ilomastat. […] The average of the three measurements was used to determine the amount of Ilomastat. […]
As indicated above, a tablet of solid 5-FU was fabricated using the same technique as described above. The dissolution rate of the tablet was then determined using the same rig as described above.
Each tablet was placed into the rig as described above and liquid samples analysed by HPLC and concentration of 5-FU was determined using the calibration curve. […]

[2] = system: Human Tenon's fibroblasts (HTF); settings: cited from earlier work; for contraction of HTF populated collagen gels: dose-dependent, Daniels et al., 2003
[3] = Engalytcheff et al. 2004; cited from earlier work
[4] = system: Human Tenon's fibroblasts (HTF); assay: Contraction of HTF collagen I gels (in vitro contraction model); format: cell-based; settings: for Contraction (%) of HTF collagen I gels: media without DMSO; for Contraction (%) of HTF collagen I gels, Average / Contraction (%) of HTF collagen I gels, Group 1 / Contraction (%) of HTF collagen I gels, Group 2 / Contraction (%) of HTF collagen I gels, Group 3 / Contraction (%) of HTF collagen I gels, Group 4: 2nd in vitro experiment
Method: Human Tenon's fibroblasts (HTF) were used for in vitro cultures. These cells are involved in subconjunctival scarring. The process of HTF isolation and proliferation was performed by using 0.5 cm^3 tissue explants from donor eyes obtained from Moorfields Hospital Eye Bank under the Tenets of the Declaration of Helsinki (1989). Explants of 0.5 cm^3 were kept for two hours in the bottom of 25 cm^3 flasks, with a coverslip placed over them. Each flask contained 5 ml of normal culture medium consisting of Dulbecco's modified Eagle's Medium (DMEM) with 10% fetal calf serum, 2 mM L-glutamine, 100 U/ml penicillin, […] gentamicin, 100 μg/ml streptomycin and 0.25 μg/ml amphotericin. The flasks were placed in incubators at 37° C. and 5% humidified CO2 in air. The culture medium was changed every 3 days and when they became confluent, usually within one month, they were passaged into new flasks for direct experimental use or were stored in liquid nitrogen.
After the HTFs reached confluence, the culture medium was aspirated and the monolayer was washed with 1 ml of trypsin 1× (Gibco) and the trypsin was quickly aspirated for about 15 seconds. Next, 2 ml of trypsin 1× (Gibco) were added to each flask and HTFs were detached from the flasks by incubation for 2 minutes at 37° C. and 5% humidified CO2 in air. After confirming by phase contrast microscopy using a Leica microscope with ×10 magnification that the cells had been detached from the bottom of the flask and that they had obtained a round shape, 2 ml of cell culture medium were added to neutralise the trypsinisation. The cell suspension was transferred to a 15 ml centrifuge tube (STARLAB GMBH) and was centrifuged at 1600 rpm for 5 minutes. The cell pellet was then resuspended in 10 ml of cell culture medium and was divided into 4 different 75 cm^3 flasks (1:4 expansion). In each flask 7.5 ml of cell culture medium were added. Flasks were placed in incubators at 37° C. and 5% humidified CO2 in air and the culture media was changed every three days. The time that was required from passage to passage in order to reach confluence was 1 week on average.
With a Neubauer plate, 6.2×10^4 HTF were counted and then were resuspended in 170 μl FBS in a 50 ml universal tube. Concentrated medium (160 μl) was added (stock solution consisting of 3.5 ml DMEM (×10 stock), 0.35 ml glutamine (2 mM stock) and 0.9 ml sodium bicarbonate (7.5% stock). 830 μl of First Link type I collagen solution collagen (stock 2.2 mg/ml in 0.6% acetic acid) were then added and the solution was mixed by swirling to avoid air bubbles. Sterile 1M NaOH (75-80 μl) was rapidly added to change the acidic pH of the solution. This caused the solution to turn a pink colour without reverting back to yellow. Quickly 150 μl collagen gel solution was cast into the wells of Mattek dishes making sure to cast the gel to the edges of the central groove using the pipette tip. Creation of air bubbles when ejecting the gel from the tip should be avoided. If air bubbles were formed, they were aspirated out. Usually, from a 1.2 ml gel suspension, 6 gels can easily be cast. Following this process, the wells of Makket dishes with the gels were placed in incubator to set for at least 10-15 min (up to 30 mins). Gels were detached from the edges of the central groove using yellow tips and excess unpolymerised solution was aspirated off. Two milliliters of cell culture medium were added and the dishes were placed in incubators at 37° C. and 5% humidified CO2 in air; the medium was replaced every 3 days.
Generally solid Ilomastat is diluted into DMSO before being added into the media, however in this experiment Ilomastat could be directly dissolved in the normal media without DMSO. […] The concentration of both samples was then confirmed by HPLC.
To compare with irradiated Ilomastat, experiments were conducted with three different treatment groups of collagen gels. Each treatment group had 3 collagen I gels with HTFs. […]

[5] = Comparison of irradiated and non-irradiated product (gamma radiation, HPLC)
[6] = system: rabbit bleb after trabeculectomy; settings: 17 injections in DMSO, 30 days, vs DMSO only control; cited from earlier work
[7] = Dissolution of Ilomastat in pH 7.6 aqueous solution without DMSO; format: physicochemical
Method: The curve was created as follows. […] The stock solution was then diluted in individual containers to give six other solutions with the following concentrations: 80 μM, 60 μM, 40 μM, 20 μM, 10 μM and 5 μM. Each solution was then evaluated three times by HPLC and the absorbance was determined.
A standard tablet punch and die and a press with an applied a pressure of five bars were used.

## O=c1[nH]cc(F)c(=O)[nH]1 [5-FU]
[1]; excipient-free 5-FU tablets A, B and C averaged
  release period: 25 h
[1]; excipient-free tablets, FIGS. 9 to 13
  release kinetics: essentially linear release of drug over a period of many hours

## CNC(=O)[C@@H](NC(=O)[C@H](CC(C)C)NC(=O)[C@@H](S)CCN1C(=O)N(C)C(C)(C)C1=O)C(C)(C)C [BMS-275291]
[2]
  contraction of HTF populated collagen gels: inhibition of the contraction of the gels

## C[C@H](CS)C(=O)N1CCC[C@H]1C(=O)O [Captopril]
[3]
  degradation caused from irradiation: not significant

## CNC(=O)[C@H](Cc1c[nH]c2ccccc12)NC(=O)[C@@H](CC(=O)NO)CC(C)C [IRRADIATED ILOMASTAT]
[4]; DAY 0
  Contraction (%) of HTF collagen I gels: 0%
[4]; DAY 1
  Contraction (%) of HTF collagen I gels: 12.51%
[4]; DAY 2
  Contraction (%) of HTF collagen I gels: 23.65%
[4]; DAY 3
  Contraction (%) of HTF collagen I gels: 28.44%
[4]; DAY 4
  Contraction (%) of HTF collagen I gels: 30.8%
[4]; DAY 5
  Contraction (%) of HTF collagen I gels: 32.23%
[4]; DAY 6
  Contraction (%) of HTF collagen I gels: 33.76%
[4]; DAY 7
  Contraction (%) of HTF collagen I gels: 36.12%
[5]; 25 kGy gamma radiation, HPLC extra peak
  trace products formed after irradiation, compared to total Ilomastat: 0.25%

## CNC(=O)[C@H](Cc1c[nH]c2ccccc12)NC(=O)[C@@H](CC(=O)NO)CC(C)C [Ilomastat, N-[(2R)-2-(hydroxamidocarbonylmethyl)-4-methylpentanoyl]-L tryptophan methylamide]
[2]; Daniels et al. 2003, WO 95/24921
  concentrations inhibiting in vitro contraction in collagen I gels in a dose dependent manner: 10 to 100 nM
[2]
  contraction of HTF populated collagen gels: inhibition of the contraction of the gels
[1]; solid dosage form of about 2 to 5 mg
  time for which an MMP inhibitory concentration of 10 μM is maintained: at least 30 days
[6]
  bleb survival: prolong significantly the bleb survival
[5]; 25 KGys dose
  degradation caused by gamma radiation: not significant
[7]
  theoretical maximum dissolution in the aqueous solution: about 100 μM

## CNC(=O)[C@H](Cc1c[nH]c2ccccc12)NC(=O)[C@@H](CC(=O)NO)CC(C)C [NON IRRADIATED]
[4]; DAY 0
  Contraction (%) of HTF collagen I gels: 0%
[4]; DAY 1
  Contraction (%) of HTF collagen I gels: 11.96%
[4]; DAY 2
  Contraction (%) of HTF collagen I gels: 27.19%
[4]; DAY 3
  Contraction (%) of HTF collagen I gels: 32.97%
[4]; DAY 4
  Contraction (%) of HTF collagen I gels: 39.9%
[4]; DAY 5
  Contraction (%) of HTF collagen I gels: 41.66%
[4]; DAY 6
  Contraction (%) of HTF collagen I gels: 42.03%
[4]; DAY 7
  Contraction (%) of HTF collagen I gels: 43.19%

## CNC(=O)[C@H](Cc1c[nH]c2ccccc12)NC(=O)[C@@H](CC(=O)NO)CC(C)C [Non-Irradiated Ilomastat with DMSO]
[4]; Day 1
  Contraction (%) of HTF collagen I gels, Average: 19.35%
  Contraction (%) of HTF collagen I gels, Group 1: 13.03%
  Contraction (%) of HTF collagen I gels, Group 2: 19.45%
  Contraction (%) of HTF collagen I gels, Group 3: 20.69%
  Contraction (%) of HTF collagen I gels, Group 4: 24.23%
[4]; Day 2
  Contraction (%) of HTF collagen I gels, Average: 22.63%
  Contraction (%) of HTF collagen I gels, Group 1: 19.75%
  Contraction (%) of HTF collagen I gels, Group 2: 22.77%
  Contraction (%) of HTF collagen I gels, Group 3: 21.37%
  Contraction (%) of HTF collagen I gels, Group 4: 26.63%
[4]; Day 3
  Contraction (%) of HTF collagen I gels, Average: 23.325%
  Contraction (%) of HTF collagen I gels, Group 1: 20.44%
  Contraction (%) of HTF collagen I gels, Group 2: 24.14%
  Contraction (%) of HTF collagen I gels, Group 3: 21.55%
  Contraction (%) of HTF collagen I gels, Group 4: 27.17%
[4]; Day 4
  Contraction (%) of HTF collagen I gels, Average: 24.14%
  Contraction (%) of HTF collagen I gels, Group 1: 21.15%
  Contraction (%) of HTF collagen I gels, Group 2: 25.19%
  Contraction (%) of HTF collagen I gels, Group 3: 22.11%
  Contraction (%) of HTF collagen I gels, Group 4: 28.11%
[4]; Day 5
  Contraction (%) of HTF collagen I gels, Average: 25.375%
  Contraction (%) of HTF collagen I gels, Group 1: 23.36%
  Contraction (%) of HTF collagen I gels, Group 2: 25.33%
  Contraction (%) of HTF collagen I gels, Group 3: 22.96%
  Contraction (%) of HTF collagen I gels, Group 4: 29.85%
[4]; Day 6
  Contraction (%) of HTF collagen I gels, Average: 27.6425%
  Contraction (%) of HTF collagen I gels, Group 1: 24.42%
  Contraction (%) of HTF collagen I gels, Group 2: 27.9%
  Contraction (%) of HTF collagen I gels, Group 3: 24.9%
  Contraction (%) of HTF collagen I gels, Group 4: 33.35%
[4]; Day 7
  Contraction (%) of HTF collagen I gels, Average: 28.2525%
  Contraction (%) of HTF collagen I gels, Group 1: 25.07%
  Contraction (%) of HTF collagen I gels, Group 2: 29%
  Contraction (%) of HTF collagen I gels, Group 3: 24.9%
  Contraction (%) of HTF collagen I gels, Group 4: 34.04%
